Data as given in ChEMBL document CHEMBL5143519, “Exploring disordered loops in DprE1 provides a functional site to combat drug-resistance in Mycobacterium strains” (Eur J Med Chem, 2022).
≈ marks a conversion by molar mass, not a printed value. Calls of active or inactive are those of the source. The calls are words filed in the database; no cut-off is given here.

Key:
[1] = system: Mycobacterium tuberculosis; test: Antimycobacterial activity against Mycobacterium tuberculosis H37Rv infected in mouse macrophage J774A.1 cell assessed as reduction in bacterial colony forming units incubated for 21 days; format: functional; settings: time 21 day
[2] = system: Mycolicibacterium smegmatis; test: Antimycobacterial activity against Mycobacterium smegmatis wild type DprE1 assessed as inhibition of bacterial growth incubated for 7 days by microplate alamar blue assay; format: functional; settings: 168 h, time 7 day
[3] = system: Mycolicibacterium smegmatis; test: Antimycobacterial activity against Mycobacterium smegmatis mc2155 assessed as inhibition of bacterial growth incubated for 7 days by microplate alamar blue assay; format: functional; settings: mc2155, 168 h, time 7 day
[4] = system: Mycobacterium tuberculosis; test: Antimycobacterial activity against Mycobacterium tuberculosis H37Rv assessed as reduction in bacterial colony forming units at 20 times MIC concentration measured after 21 days by time kill assay; format: functional; settings: time 21 day
[5] = system: Mycobacterium tuberculosis; test: Antimycobacterial activity against Mycobacterium tuberculosis H37Rv assessed as inhibition of bacterial growth incubated for 7 days by microplate alamar blue assay; format: functional; settings: 168 h, time 7 day
[6] = biological target: T1, Decaprenylphosphoryl-beta-D-ribose oxidase (Mycobacterium tuberculosis (strain ATCC 25618 / H37Rv), UniProt P9WJF1); test: Inhibition of Mycobacterium tuberculosis wild type DprE1 expressed in Escherichia coli BL21 DE3 assessed as formation of resorufin using FPR as substrate incubated for 10 mins by Amplex Red dye microplate assay
T1 sequence (P9WJF1 whole entry): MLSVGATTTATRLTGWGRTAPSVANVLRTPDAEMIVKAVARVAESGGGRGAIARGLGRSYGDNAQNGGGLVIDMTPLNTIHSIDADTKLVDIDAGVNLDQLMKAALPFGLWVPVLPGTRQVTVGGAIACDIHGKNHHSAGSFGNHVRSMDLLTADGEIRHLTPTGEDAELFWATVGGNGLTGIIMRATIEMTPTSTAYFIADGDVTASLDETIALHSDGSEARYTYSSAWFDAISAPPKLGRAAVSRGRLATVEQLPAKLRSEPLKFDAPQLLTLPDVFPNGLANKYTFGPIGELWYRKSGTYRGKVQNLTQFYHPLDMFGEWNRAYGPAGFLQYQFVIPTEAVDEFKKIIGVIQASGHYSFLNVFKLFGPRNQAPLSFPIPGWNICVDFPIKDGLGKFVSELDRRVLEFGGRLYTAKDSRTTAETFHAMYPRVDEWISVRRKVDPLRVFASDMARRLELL

[7] = system: Mycobacterium tuberculosis; test: Antimycobacterial activity against Mycobacterium tuberculosis H37Rv assessed as reduction in bacterial colony forming units at 20 times MIC concentration measured after 7 days by time kill assay; format: functional, organism-based; settings: time 7.0 day

Row | Compound | Activity [1] [log10CFU] | MIC [2] [µM] | MIC [3] [µM] | Activity [4] [log10CFU/ml] | MIC [5] [µM] | IC50 [6] [µM] | Activity [7]
1 | CCOC(=O)NC(=O)c1ccsc1NC(=O)c1nc2ccccc2s1 | 0.6 | 0.23 (≈ 0.0863 µg/mL) | 33.2 (≈ 12.5 µg/mL) | 3 | 1.68 (≈ 0.631 µg/mL) | 0.053 | 
2 | N#Cc1ccc(C(=O)Nc2sccc2C(=O)NC(=O)OCC2CC2)cc1 |  |  |  |  | > 250 | 18.9 | 
3 | CCOC(=O)NC(=O)c1ccsc1NC(=O)c1nc2cnccc2s1 |  | 0.089 (≈ 0.0335 µg/mL) |  |  |  |  | 
4 | CC(=O)c1ccc(C(=O)Nc2sccc2C(=O)NC(=O)OCC2CC2)cc1 |  |  |  |  | 51.8 (≈ 20 µg/mL) | 1.21 | 
5 | CCOC(=O)NC(=O)c1ccsc1NC(=O)c1ccc(C#N)cn1 |  |  |  |  | > 300 | 41.2 | 
6 | O=C(NC(=O)c1ccsc1NC(=O)c1nc2ccccc2s1)OCC1CCCC1 |  |  |  |  | > 250 | 22.4 | 
7 | CCOC(=O)NC(=O)c1ccsc1NC(=O)c1ccc(C(C)=O)cc1 |  |  |  |  | > 300 | 36.4 | 
8 | CO[C@H]1/C=C/O[C@@]2(C)Oc3c(C)c(O)c4c(O)c(c(/C=N/N5CCN(C)CC5)c(O)c4c3C2=O)NC(=O)/C(C)=C\C=C\[C@H](C)[C@H](O)[C@@H](C)[C@@H](O)[C@@H](C)[C@H](OC(C)=O)[C@@H]1C [RIFAMPIN] | 1.1 |  | 0.35 (≈ 0.288 µg/mL) | 3 | 0.11 (≈ 0.0905 µg/mL) |  | 
9 | CCOC(=O)NC(=O)c1ccsc1NC(=O)c1ccc(C#N)cc1 |  |  |  |  | > 300 | > 64 | 
10 | CCOC(=O)NC(=O)c1cc(F)sc1NC(=O)c1nc2ccccc2s1 |  | 0.046 (≈ 0.0181 µg/mL) |  |  |  |  | 
11 | O=C(NC(=O)c1ccsc1NC(=O)c1nc2ccccc2s1)OC1CCC1 |  |  |  |  | > 250 | 18.6 | 
12 | O=C(NC(=O)c1ccsc1NC(=O)c1nc2ccccc2s1)OCC1CCC1 | 0.9 |  | 24.1 (≈ 9.99 µg/mL) |  | 3.01 (≈ 1.25 µg/mL) | 0.098 | 
13 | N#Cc1ccc(C(=O)Nc2sccc2C(=O)NC(=O)OCC2CC2)nc1 |  |  |  |  | 216 (≈ 79.8 µg/mL) | 11.5 | 
14 | O=C(NC(=O)c1ccsc1NC(=O)c1nc2ccccc2s1)OCC1CCCCC1 |  |  |  |  | > 250 | > 64 | 
15 | O=C(NC(=O)c1ccsc1NC(=O)c1nc2ccccc2s1)OCC1CC1 | 1.1 |  | 12.4 (≈ 4.99 µg/mL) | 3 | 0.77 (≈ 0.309 µg/mL) | 0.01 | Active
